According to ChEMBL document CHEMBL5537175, “Unraveling the Puzzle of Therapeutic Peptides: A Promising Frontier in Huntington's Disease Treatment” (J Med Chem, 2024):
Values belong to the substance of their own block, whether it stands above or below them.

Key:
[1] = Inhibition of YFP aggregation in african green monkey COS-7 cells at 70 nM relative to control; assay type: functional; conditions: Chlorocebus aethiops
RNA = assay: Binding affinity to CAG repeat RNA (unknown origin) assessed as dissociation constant; assay type: nucleic-acid assay
Huntingtin [2] = biological target: T1, Huntingtin (Homo sapiens, UniProt P42858); assay: Binding affinity to HTT (unknown origin) assessed as dissociation constant by surface plasmon resonance assay
Huntingtin [3] = biological target: T1, Huntingtin; assay: Inhibition of HTT (unknown origin) by ELISA method
COS-7 = assay: Cytotoxicity against african green monkey COS-7 cells assessed as reduction in cell growth; assay type: toxicity, cell-based; design: scale not given: the % may be the effect or the level left; conditions: chlorocebus aethiops
Huntingtin [4] = biological target: T1, Huntingtin; assay: Inhibition of HTT (unknown origin) aggregation at 5 uM relative to control
Caspase-6 = biological target: T2, Caspase-6 (Homo sapiens, UniProt P55212); assay: Inhibition of Caspase-6 activity (unknown origin) by FRET assay
T2 sequence (P55212 whole entry): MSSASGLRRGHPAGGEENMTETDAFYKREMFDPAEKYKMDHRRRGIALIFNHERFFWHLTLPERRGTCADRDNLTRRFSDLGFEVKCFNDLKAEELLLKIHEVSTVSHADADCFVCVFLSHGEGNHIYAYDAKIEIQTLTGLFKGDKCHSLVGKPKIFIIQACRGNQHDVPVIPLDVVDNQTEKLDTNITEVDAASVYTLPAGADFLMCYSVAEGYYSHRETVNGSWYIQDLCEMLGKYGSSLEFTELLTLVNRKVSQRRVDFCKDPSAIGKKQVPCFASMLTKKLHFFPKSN

T1 sequence (P42858 whole entry): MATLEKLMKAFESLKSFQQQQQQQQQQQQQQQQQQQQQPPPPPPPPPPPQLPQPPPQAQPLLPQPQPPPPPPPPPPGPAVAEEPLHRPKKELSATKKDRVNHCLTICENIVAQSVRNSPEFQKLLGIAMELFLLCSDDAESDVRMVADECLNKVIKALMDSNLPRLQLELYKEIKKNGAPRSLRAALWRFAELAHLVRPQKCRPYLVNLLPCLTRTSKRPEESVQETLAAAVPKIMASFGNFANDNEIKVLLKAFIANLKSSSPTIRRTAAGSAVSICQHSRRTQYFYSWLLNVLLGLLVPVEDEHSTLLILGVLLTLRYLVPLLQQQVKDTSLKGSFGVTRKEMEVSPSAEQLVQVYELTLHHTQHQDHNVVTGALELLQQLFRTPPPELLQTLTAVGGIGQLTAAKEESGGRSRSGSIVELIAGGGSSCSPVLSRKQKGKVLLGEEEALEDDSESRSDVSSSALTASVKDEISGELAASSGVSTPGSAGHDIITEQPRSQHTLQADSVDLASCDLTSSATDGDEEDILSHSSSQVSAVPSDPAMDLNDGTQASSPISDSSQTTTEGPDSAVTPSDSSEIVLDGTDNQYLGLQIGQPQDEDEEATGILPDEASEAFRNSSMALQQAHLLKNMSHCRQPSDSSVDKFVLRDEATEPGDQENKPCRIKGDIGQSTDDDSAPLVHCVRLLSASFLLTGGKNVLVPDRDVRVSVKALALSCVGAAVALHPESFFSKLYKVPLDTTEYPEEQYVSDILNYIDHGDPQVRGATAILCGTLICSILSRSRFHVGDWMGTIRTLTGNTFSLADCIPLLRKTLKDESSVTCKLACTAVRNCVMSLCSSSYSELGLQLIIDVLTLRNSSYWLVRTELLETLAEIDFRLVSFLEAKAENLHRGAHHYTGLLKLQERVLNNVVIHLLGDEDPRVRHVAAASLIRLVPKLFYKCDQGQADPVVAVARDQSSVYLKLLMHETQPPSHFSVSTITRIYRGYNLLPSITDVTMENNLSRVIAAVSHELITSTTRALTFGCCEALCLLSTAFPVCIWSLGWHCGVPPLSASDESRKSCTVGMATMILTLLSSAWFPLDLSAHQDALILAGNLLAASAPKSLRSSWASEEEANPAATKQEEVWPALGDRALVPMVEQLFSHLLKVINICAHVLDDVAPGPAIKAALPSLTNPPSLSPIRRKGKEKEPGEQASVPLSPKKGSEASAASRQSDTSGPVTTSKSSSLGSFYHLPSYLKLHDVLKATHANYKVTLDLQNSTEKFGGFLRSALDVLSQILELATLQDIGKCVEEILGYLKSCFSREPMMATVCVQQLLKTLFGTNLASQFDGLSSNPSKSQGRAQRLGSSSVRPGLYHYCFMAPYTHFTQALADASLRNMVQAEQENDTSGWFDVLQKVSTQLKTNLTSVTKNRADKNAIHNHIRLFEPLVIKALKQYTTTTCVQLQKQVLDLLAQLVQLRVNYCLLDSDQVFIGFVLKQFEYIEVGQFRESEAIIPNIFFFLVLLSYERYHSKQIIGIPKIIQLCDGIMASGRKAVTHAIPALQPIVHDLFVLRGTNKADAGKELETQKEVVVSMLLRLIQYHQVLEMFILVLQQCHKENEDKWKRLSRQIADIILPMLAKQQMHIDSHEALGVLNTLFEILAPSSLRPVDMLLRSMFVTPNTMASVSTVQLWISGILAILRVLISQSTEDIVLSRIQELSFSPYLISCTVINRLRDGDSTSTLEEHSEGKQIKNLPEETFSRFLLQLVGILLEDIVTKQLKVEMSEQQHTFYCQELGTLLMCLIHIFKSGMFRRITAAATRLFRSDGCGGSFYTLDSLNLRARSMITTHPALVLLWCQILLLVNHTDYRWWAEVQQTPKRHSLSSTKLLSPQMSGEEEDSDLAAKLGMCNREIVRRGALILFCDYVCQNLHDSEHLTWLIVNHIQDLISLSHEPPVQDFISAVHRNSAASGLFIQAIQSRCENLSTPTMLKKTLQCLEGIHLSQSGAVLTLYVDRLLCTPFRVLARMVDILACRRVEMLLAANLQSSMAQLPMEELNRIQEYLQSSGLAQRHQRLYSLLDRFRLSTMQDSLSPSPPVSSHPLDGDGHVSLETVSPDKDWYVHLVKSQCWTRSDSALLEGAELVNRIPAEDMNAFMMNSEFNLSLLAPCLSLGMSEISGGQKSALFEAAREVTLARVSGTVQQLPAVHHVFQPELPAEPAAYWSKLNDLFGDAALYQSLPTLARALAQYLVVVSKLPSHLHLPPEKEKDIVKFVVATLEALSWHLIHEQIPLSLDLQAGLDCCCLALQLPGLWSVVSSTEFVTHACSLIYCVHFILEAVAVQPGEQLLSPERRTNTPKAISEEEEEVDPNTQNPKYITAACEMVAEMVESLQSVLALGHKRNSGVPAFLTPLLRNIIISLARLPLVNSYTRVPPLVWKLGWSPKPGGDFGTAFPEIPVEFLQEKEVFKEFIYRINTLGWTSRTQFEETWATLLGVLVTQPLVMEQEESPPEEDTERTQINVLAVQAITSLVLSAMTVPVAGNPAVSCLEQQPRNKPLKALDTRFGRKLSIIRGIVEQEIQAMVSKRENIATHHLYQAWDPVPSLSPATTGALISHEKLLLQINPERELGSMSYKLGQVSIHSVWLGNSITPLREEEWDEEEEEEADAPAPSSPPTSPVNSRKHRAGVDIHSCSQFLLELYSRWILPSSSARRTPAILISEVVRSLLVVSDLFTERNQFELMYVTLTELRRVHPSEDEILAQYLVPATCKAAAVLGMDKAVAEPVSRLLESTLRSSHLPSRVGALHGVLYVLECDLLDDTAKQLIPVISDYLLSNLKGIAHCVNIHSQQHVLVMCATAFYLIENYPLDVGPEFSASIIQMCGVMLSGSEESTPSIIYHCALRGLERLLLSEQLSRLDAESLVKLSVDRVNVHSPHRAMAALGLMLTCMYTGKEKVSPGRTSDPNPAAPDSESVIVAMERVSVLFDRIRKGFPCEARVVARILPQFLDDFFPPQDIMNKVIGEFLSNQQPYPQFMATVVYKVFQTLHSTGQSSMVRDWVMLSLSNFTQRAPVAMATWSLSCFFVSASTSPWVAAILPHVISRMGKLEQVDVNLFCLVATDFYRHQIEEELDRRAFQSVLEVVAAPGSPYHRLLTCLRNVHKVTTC

Kd (RNA): 8.37 nM
Substance: H-DGKSKGIAYIEFK-OH

Kd (RNA): 0.33 nM
Substance: Ac-DGKSKGIAYIEFK-NH2

Second part, the substance before the results:

Substance: H-WKWWPGIFDYGRKKRRQRRR-OH
inhibition at 0.07 µM [1]: 81.2%

Substance: H-AEIRLVSKDGKSKGIAYIEFK-OH
Kd (RNA): 660 nM

Substance: H-SNWKWWPGIFD-OH
Kd (Huntingtin [2]): 5.7 µM
IC50 (Huntingtin [3]): 5 µM

Substance: H-RQIKIWFQNRRMKWKKSNWKWWPGIFD-OH
Activity (COS-7): 30.2%

Substance: H-MATLEKLMKAFESLKSF-OH
inhibition (Huntingtin [4]): 20%

Substance: H-GRKKRRQRRRPPQSSEIVLDGTDN-OH
IC50 (Caspase-6): 12.1 nM
